The results in this text go back to US10035790B2, “RORγ modulators” (BRISTOL-MYERS SQUIBB COMPANY, priority 2012, dated 2018).

Structures are written as SMILES.

The test has as its target T1, ligand binding domain of human RORγ (A262-S507) (Homo sapiens, UniProt P51449).
T1 construct: made in house; host or cells: E. coli
T1 sequence (P51449 262-507): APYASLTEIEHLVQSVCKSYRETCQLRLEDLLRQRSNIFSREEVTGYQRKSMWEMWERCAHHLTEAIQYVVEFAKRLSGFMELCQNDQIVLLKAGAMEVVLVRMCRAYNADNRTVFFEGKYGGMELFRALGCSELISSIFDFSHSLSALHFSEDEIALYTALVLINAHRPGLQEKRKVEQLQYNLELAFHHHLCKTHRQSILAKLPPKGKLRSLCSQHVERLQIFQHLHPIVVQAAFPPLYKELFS
The test is described as follows: General RORγ SPA binding assay (competition with [3H]25-hydroxycholesterol). The settings on record: RORγ SPA binding assay, inhibition of [3H]25-hydroxycholesterol binding; read-out: IC50. Put shortly:
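N-terminally His-tagged protein was expressed in E. coli and nickel-purified. Then 50 nM protein was preincubated with compound for 15 min at room temperature in PBS with 0.5% fatty acid free BSA, followed by radioligand for 15 min and copper His-tag SPA beads for 30 min. IC50 came from percent inhibition of binding.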
Broadly, the IC50 is the concentration that inhibits the measured activity by half. On to `Cc1nc(C)c(-c2nnc(-c3ccnc(C(F)(F)F)n3)o2)c(C2CCN(C(=S)Nc3c(F)cccc3F)CC2)n1` [Compound C46, N-(2,6-Difluorophenyl)-4-(2,6-dimethyl-5-{5-[2-(trifluoromethyl)pyrimidin-4-yl]-1,3,4-oxadiazol-2-yl}pyrimidin-4-yl)piperidine-1-carbothioamide], for which the IC50 was 0.123 µM. In the case of `C/C(=N\Oc1cccc(C(F)(F)F)n1)c1cnc(C)nc1C1CCN(C(=O)Nc2c(F)cccc2F)CC1` [Compound B38, N-(2,6-Difluorophenyl)-4-{2-methyl-5-[(1E)-N-{[6-(trifluoromethyl)pyridin-2-yl]oxy}ethanimidoyl]pyrimidin-4-yl}piperidine-1-carboxamide] it was 0.169 µM; in that of `Cc1ncc(C(C)(F)COc2cccc(C(F)(F)F)n2)c(C2CCN(C(=O)Nc3c(F)cccc3C(F)(F)F)CC2)n1` (stereo not drawn) [Compound E13, 4-[5-(1-Fluoro-1-methyl-2-{[6-(trifluoromethyl)pyridin-2-yl]oxy}ethyl)-2-methylpyrimidin-4-yl]-N-[2-fluoro-6-(trifluoromethyl)phenyl]piperidine-1-carboxamide], 0.0132 µM.

For `Cc1ncc(C(O)(CCN)COc2cccc(C(F)(F)F)n2)c(C2CCN(C(=O)Nc3c(F)cccc3F)CC2)n1` (stereo not drawn) [Compound N31, 4-(5-(4-Amino-2-hydroxy-1-(6-(trifluoromethyl)pyridin-2-yloxy)butan-2-yl)-2-methylpyrimidin-4-yl)-N-(2,6-difluorophenyl)piperidine-1-carboxamide], the IC50 came out at 0.62 µM. For `Cc1ncc(/C(CF)=N/Oc2ccnc(C(F)(F)F)n2)c(C2CCN(C(=O)Cc3c(F)cccc3F)CC2)n1` [Compound B27, (Z)-2-(2,6-difluorophenyl)-1-(4-(5-(2-fluoro-1-(((2-(trifluoromethyl)pyrimidin-4-yl)oxy)imino)ethyl)-2-methylpyrimidin-4-yl)piperidin-1-yl)ethanone], the IC50 worked out at 0.0358 µM. For `CCNc1ncc(C(=O)NCc2cccc(Cl)c2)c(C2CCN(C(=O)Cc3c(F)cccc3F)CC2)n1` [Compound A91, N-(3-chlorobenzyl)-4-(1-(2-(2,6-difluorophenyl)acetyl)piperidin-4-yl)-2-(ethylamino)pyrimidine-5-carboxamide], the IC50 came out at 0.0067 µM. Take `Cc1ncc(C(C)(O)CNc2cc(C(F)(F)F)ccn2)c(C2CCN(C(=O)Cc3c(F)cccc3F)CC2)n1` (stereo not drawn) [Compound D8, 2-(2,6-difluorophenyl)-1-(4-(5-(2-hydroxy-1-((4-(trifluoromethyl)pyridin-2-yl)amino)propan-2-yl)-2-methylpyrimidin-4-yl)piperidin-1-yl)ethanone]: the IC50 stood at 0.105 µM. On to `CSc1ncc(C(C)=NOc2ccnc(C(F)(F)F)c2)c(C2CCN(C(=O)Nc3c(F)cccc3F)CC2)n1` (mixture of isomers) [Compound B52, N-(2,6-Difluorophenyl)-4-{2-(methylthio)-5-[(1E)-N-{[2-(trifluoromethyl)pyridin-4-yl]oxy}ethanimidoyl]pyrimidin-4-yl}piperidine-1-carboxamide], for which the IC50 is 0.334 µM. Take `Cc1cc(C)cc(CNC(=O)c2cnc(C)nc2C2CCN(C(=O)Cc3c(F)cccc3C(F)(F)F)CC2)c1` [Compound A4, N-(3,5-dimethylbenzyl)-4-(1-(2-(2-fluoro-6-(trifluoromethyl)phenyl)acetyl)piperidin-4-yl)-2-methylpyrimidine-5-carboxamide]: the IC50 amounted to 0.0078 µM.

As to `CC(=O)NCC(O)(COc1cccc(C(F)(F)F)n1)c1cnc(C)nc1C1CCN(C(=O)Oc2c(F)cccc2F)CC1` (stereo not drawn) [Compound N47, 2,6-Difluorophenyl 4-{5-[2-(acetylamino)-1-hydroxy-1-({[6-(trifluoromethyl)pyridin-2-yl]oxy}methyl)ethyl]-2-methylpyrimidin-4-yl}piperidine-1-carboxylate], the IC50 was found to be 0.0036 µM. For the molecule `Cc1ncc(C(F)(F)CNc2nccc(C(F)(F)F)n2)c(C2CCN(C(=O)Nc3c(F)cccc3F)CC2)n1` [Compound N20, N-(2,6-Difluorophenyl)-4-[5-(1,1-difluoro-2-{[4-(trifluoromethyl)pyrimidin-2-yl]amino}ethyl)-2-methylpyrimidin-4-yl]piperidine-1-carboxamide], the IC50 came to 0.0212 µM. With `Cc1cc(C)cc(CNC(=O)c2cnc(C)nc2C2CCN(C(=O)c3c(F)cccc3Cl)CC2)c1` [Compound A8, 4-(1-(2-chloro-6-fluorobenzoyl)piperidin-4-yl)-N-(3,5-dimethylbenzyl)-2-methylpyrimidine-5-carboxamide], the IC50 was 0.0294 µM. As for `Cc1ncc(C(C)(O)CNc2ccn(C)n2)c(C2CCN(C(=O)Cc3c(F)cccc3F)CC2)n1` (stereo not drawn) [Compound D10, 2-(2,6-difluorophenyl)-1-(4-(5-(2-hydroxy-1-((1-methyl-1H-pyrazol-3-yl)amino)propan-2-yl)-2-methylpyrimidin-4-yl)piperidin-1-yl)ethanone], the IC50 was found to be 4.38 µM. With `Cc1nc(C)c(-c2nnc(-c3ccnc(Cl)c3)o2)c(C2CCN(C(=O)Cc3c(F)cccc3F)CC2)n1` [Compound C22, 1-(4-(5-(5-(2-chloropyridin-4-yl)-1,3,4-oxadiazol-2-yl)-2,6-dimethylpyrimidin-4-yl)piperidin-1-yl)-2-(2,6-difluorophenyl)ethanone], the IC50 stood at 3.96 µM.

For `Cc1ncc(C(=O)NCc2ccccc2)c(C2CCN(C(=O)Cc3c(F)cccc3F)CC2)n1` [Compound A69, N-benzyl-4-(1-(2-(2,6-difluorophenyl)acetyl)piperidin-4-yl)-2-methylpyrimidine-5-carboxamide], the half-maximal inhibitory concentration (IC50) stood at 0.144 µM. For the molecule `Cc1ncc(C(N)(COc2cccc(C(F)(F)F)n2)C(N)=O)c(C2CCN(C(=O)Nc3c(F)cccc3F)CC2)n1` (stereo not drawn) [Compound N49, 4-{5-[1,2-Diamino-2-oxo-1-({[6-(trifluoromethyl)pyridin-2-yl]oxy}methyl)ethyl]-2-methylpyrimidin-4-yl}-N-(2,6-difluorophenyl)piperidine-1-carboxamide], the concentration for half-maximal inhibition (IC50) is 0.176 µM.

Consider `CN(C)CCNc1ncc(C(=O)NCc2cccc(Cl)c2)c(C2CCN(C(=O)Cc3c(F)cccc3F)CC2)n1` [Compound A97, N-(3-chlorobenzyl)-4-(1-(2-(2,6-difluorophenyl)acetyl)piperidin-4-yl)-2-((2-(dimethylamino)ethyl)amino) pyrimidine-5-carboxamide], for which the IC50 was 0.29 µM. On to `Cc1nc(N)nc(C2CCN(C(=O)Nc3ccccc3Cl)CC2)c1-c1nnc(-c2ccnc(C(F)(F)F)n2)o1` [Compound C71, 4-(2-Amino-6-methyl-5-{5-[2-(trifluoromethyl)pyrimidin-4-yl]-1,3,4-oxadiazol-2-yl}pyrimidin-4-yl)-N-(2-chlorophenyl)piperidine-1-carboxamide], for which the IC50 amounted to 0.0302 µM.

As for `Cc1ncc(C(C)(O)COc2cccc(C(F)(F)F)n2)c(C2CCN(C(=O)Cc3c(F)cccc3F)CC2)n1` (stereo not drawn) [Compound D24, 2-(4-{1-[(2,6-difluorophenyl)acetyl]piperidin-4-yl}-2-methylpyrimidin-5-yl)-1-{[6-(trifluoromethyl)pyridin-2-yl]oxy}propan-2-ol], the IC50 came to 0.005 µM.

With `Cc1cc(C)cc(CNC(=O)c2cnc(C)nc2C2CCN(C(=O)Cc3c(F)cccc3Cl)CC2)c1` [Compound A3, 4-(1-(2-(2-chloro-6-fluorophenyl)acetyl)piperidin-4-yl)-N-(3,5-dimethylbenzyl)-2-methylpyrimidine-5-carboxamide], the IC50 turned out to be 0.0072 µM. In the case of `Cc1ncc(C(=O)NCc2cccc(Cl)c2)c(C2(F)CCN(C(=O)Cc3c(F)cccc3F)CC2)n1` [Compound A103, N-(3-Chlorobenzyl)-4-(1-(2-(2,6-difluorophenyl)acetyl)-4-fluoropiperidin-4-yl)-2-methylpyrimidine-5-carboxamide] it was 0.0034 µM; in that of `Cc1cc(C)cc(CNC(=O)c2cnc(C)nc2C2CCN(C(=O)Cc3cccc(F)c3)CC2)c1` [Compound A22, N-(3,5-dimethylbenzyl)-4-(1-(2-(3-fluorophenyl)acetyl)piperidin-4-yl)-2-methylpyrimidine-5-carboxamide], 0.235 µM; in that of `COC(=O)C(NC(=O)c1cnc(C)nc1C1CCN(C(=O)Cc2c(F)cccc2F)CC1)c1cccc(Cl)c1` (stereo not drawn) [Compound A75, methyl 2-(3-chlorophenyl)-2-(4-(1-(2-(2,6-difluorophenyl)acetyl)piperidin-4-yl)-2-methylpyrimidine-5-carboxamido)acetate], 0.75 µM. The same measure for `C/C(=N\Oc1cc(F)ccc1C)c1cnc(C)nc1C1CCN(C(=O)Cc2c(F)cccc2F)CC1` [Compound B17, (E)-2-(2,6-difluorophenyl)-1-(4-(5-(1-((5-fluoro-2-methylphenoxy)imino)ethyl)-2-methylpyrimidin-4-yl)piperidin-1-yl)ethanone]: 0.0093 µM; for `Cc1cc(C)cc(CNC(=O)c2cnc(C)nc2C2CCN(CCc3c(F)cccc3F)CC2)c1` [Compound A99, 4-(1-(2,6-difluorophenethyl)piperidin-4-yl)-N-(3,5-dimethylbenzyl)-2-methylpyrimidine-5-carboxamide]: 0.058 µM.

In the case of `Cc1cc(C)cc(CNC(=O)c2cnc(C)nc2C2CCN(C(=O)Cc3cccc(C)c3)CC2)c1` [Compound A30, N-(3,5-dimethylbenzyl)-2-methyl-4-(1-(2-(m-tolyl)acetyl)piperidin-4-yl) pyrimidine-5-carboxamide], the IC50 amounted to 1.45 µM. Take `CNc1nc(C)nc(C2CCN(C(=O)Cc3c(F)cccc3F)CC2)c1C(=O)NCc1cc(C)cc(C)c1` [Compound A108, 4-(1-(2-(2,6-Difluorophenyl)acetyl)piperidin-4-yl)-N-(3,5-dimethylbenzyl)-2-methyl-6-(methylamino)pyrimidine-5-carboxamide]: the IC50 worked out at 0.0217 µM.
